According to PMC10101059, “Rational Design of Stapled Antimicrobial Peptides to Enhance Stability and In Vivo Potency against Polymicrobial Sepsis” (Microbiology Spectrum, 2023):
Peptide text beside a SMILES is read from it.

Columns and labels:
Assay type in all cases: cell-based
[1] = test system: human red blood cells
Experimental: The hemolytic assay was performed after approval from the institutional ethics committee (Academia Sinica Institutional Review Board [IRB]; ID no. AS-IRB02-111075). Blood was collected from healthy humans, and 50 μL of a 2% blood cell suspension in normal saline was treated with an equal volume of peptide at different concentrations. The mixture was then incubated at 37 ± 2°C for 1 h. Next, the cell suspension was centrifuged at 1,000 × g for 10 min. Percent hemolysis was estimated by the absorbance of treated and control supernatant samples at 540 nm ([23], [44]).

[2] = test system: human keratinocyte (HaCaT); assay: alamarBlue cytotoxicity assay; conditions: at 0.78 μM, 24 h
Experimental: (§1) (i) Cell culture. Human skin keratinocytes (HaCaT), human kidney (HK-2), and RAW 264.7 macrophage cells were obtained from the Bioresource Collection and Research Center (BCRC, Hsinchu, Taiwan). HaCaT and […] macrophage cells were cultured in Dulbecco’s modified Eagle’s medium (DMEM, Thermo Fischer, MA, USA.) supplemented with 10% FBS, penicillin (100 U/mL), and streptomycin (100 μg/mL) at 37°C under 5% CO2. HK-2 cells were cultured in glucose-free Keratinocyte serum-free medium (K-SFM) supplemented with 0.05 mg/mL bovine pituitary extract (BPE), 5 ng/mL EGF, 100 U/mL penicillin, and […] streptomycin at 37°C in 5% CO2 ([49]).
(§2) In vitro toxicity assay. The cytotoxicity of TP4-3 was evaluated by an alamarBlue assay. HaCaT, HK-2, and RAW 264.7 macrophage cells were seeded at densities of 1 × 10^4 cells/well in 96-well cell plates and treated with the indicated concentrations of TP4 and TP4-3 for 24 h (0.78 to 100 μM). Cells treated with 0.1% Triton X-100 and culture medium served as negative and positive-control groups, respectively. After incubation, the cells were washed and incubated for 2 h at 37°C with 90 μL Dulbecco’s modified Eagle medium (DMEM) containing 10 μL alamarBlue reagent. Fluorescence was recorded using a Spectra Max i3 Multi-Mode detection platform (Molecular Devices, San Jose, CA) to measure cell viability ([50], [51]).

[3] = test system: human kidney cell (HK-2); assay: alamarBlue cytotoxicity assay; conditions: at 1.56 μM, 24 h
Experimental: as §1, §2

[4] = test system: murine macrophage (RAW 264.7); assay: alamarBlue cytotoxicity assay; conditions: at 1.56 μM, 24 h
Experimental: as §1, §2

## CC[C@H](C)[C@H](NC(=O)[C@H](C)NC(=O)[C@H](CCCCN)NC(=O)CNC(=O)[C@H](C)NC(=O)[C@H](CO)NC(=O)[C@H](Cc1ccccc1)NC(=O)[C@H](CC(C)C)NC(=O)CNC(=O)CNC(=O)[C@@H](NC(=O)[C@@H](NC(=O)[C@H](Cc1cnc[nH]1)NC(=O)[C@H](Cc1cnc[nH]1)NC(=O)[C@@H](NC(=O)[C@@H](N)Cc1ccccc1)[C@@H](C)CC)[C@@H](C)CC)[C@@H](C)CC)C(=O)N[C@@H](Cc1cnc[nH]1)C(=O)N[C@@H](CCCNC(=N)N)C(=O)N[C@@H](CC(C)C)C(=O)N[C@H](C(=O)N[C@@H](CCCNC(=N)N)C(=O)N[C@@H](CCCNC(=N)N)C(=O)N[C@@H](CCCNC(=N)N)C(=O)N[C@@H](CCCNC(=N)N)C(=O)N[C@@H](CCCNC(=N)N)C(=O)O)[C@@H](C)CC [TP4, tilapia piscidin 4] (H-FIHHIIGGLFSAGKAIHRLIRRRRR-OH)
[1]
  15% hemolysis concn: <3.13 µM
[2]
  cell death: substantial cell death
[3]
  cell death: substantial cell death
[4]
  cell death: substantial cell death
